# Test results: patent US20250110116A1, “COMPOSITIONS AND METHODS FOR PRODUCING HAIR FOLLICLE STEM CELLS” (The Rockefeller University, priority 2023, published 2025)
# Entries after “also recorded” stand apart in the source; their conditions may differ. Where two headings read alike, the source gives them in different places.
# B1: BMP4: bone morphogenetic protein (protein, UniProt P12644 293-408, looked up)
# Bone morphogenetic protein 4: SPKHHSQRARKKNKNCRRHSLYVDFSDVGWNDWIVAPPGYQAFYCHGDCPFPLADHLNSTNHAIVQTLVNSVNSSIPKACCVPTELSAISMLYLDEYDKVVLKNYQEMVVEGCGCR
# B2: BMP6: bone morphogenetic protein; promotes HFSC quiescence (protein, UniProt P22004 375-513, looked up)
# Bone morphogenetic protein 6: SASSRRRQQSRNRSTQSQDVARVSSASDYNSSELKTACRKHELYVSFQDLGWQDWIIAPKGYAANYCDGECSFPLNAHMNATNHAIVQTLVHLMNPEYVPKPCCAPTKLNAISVLYFDDNSNVILKKYRNMVVRACGCH
# B3: FGF10: fibroblast growth factor 10, native HFSC niche mitogen (protein, UniProt O15520 38-208, looked up)
# Fibroblast growth factor 10: QALGQDMVSPEATNSSSSSFSSPSSAGRHVRSYNHLQGDVRWRKLFSFTKYFLKIEKNGKVSGTKKENCPYSILEITSVEIGVVAVKAINSNYYLAMNKKGKLYGSKEFNNDCKLKERIEENGYNTYASFNWQHNGRQMYVALNGKGAPRRGQKTRRKNTSAHFLPMVVHS
# Assays:
# Klf5-EGFP = Klf5-EGFP lineage plasticity reporter in 3D cultured HFSCs (flow cytometry); assay type: cell-based, mouse; settings: for reduction of Klf5-EGFP levels: atRA and PKCi tested in combination; for effect on lineage plasticity (Klf5-EGFP levels): screen of small molecule library, serum-free 3D culture; for Klf5-EGFP levels: media modification
# cultured HFSCs [1] = assay: Marker expression in cultured HFSCs (immunofluorescence, immunoblot, qPCR); assay type: cell-based, mouse; settings: for resolution of lineage plasticity and HFSC behavior: combination of atRA and PKCi, 3D culture
# Source text: We first explored these two hits against the backdrop of our more physiological (serum-free) conditions, where SOX9 and KLF5 had already partitioned their expression peripherally and internally within colonies, respectively (FIG. 1 Panel C).
# Immunoblot, qPCR and additional immunofluorescence analyses strengthened the evidence that PKCi and atRA resolve lineage plasticity (FIG. 1 Panel D, FIG. S2, Panels C to E).
# cultured HFSCs [2] = assay: HFSC quiescence / bulge identity in culture (Nfatc1, Cxcl14 reporter); assay type: cell-based, mouse
# Source text: In vivo, HFSCs can be divided into two populations: those in a more quiescent state found in the bulge and ones primed for activation, located in the ‘hair germ’ (HG) just below the bulge. As BMP6 is produced by the inner bulge and responsible for maintaining HFSCs in their quiescent state (FIG. 2 Panel A), we continued to utilize a described culture system by assessing how these factors impact HFSC activation and fate commitment.
# BMPs triggered cell cycle exit (FIG. 9 Panel A).
# (§1) ERKi was also excluded because of its known ability to regulate the initiation of hair growth. Both atRA (10 nM-1 μM) and PKCi (0.1-10 μM) were titrated to determine the optimal concentration to reduce lineage plasticity and promote physiological HFSC behavior. […] In contrast, BMP6-mediated Nfatc1 mRNA upregulation (quiescence marker) was maximal at 10 nM. Therefore, the amount of atRA should be modified in HFSC cultures to support the desired cell fate in combination with these and possibly other growth factors.
# cultured HFSCs [3] = assay: Rspo/WNT-mediated HFSC activation in culture (TCF/LEF, Lgr5, EdU); assay type: cell-based, mouse
# Source text: In vitro, none of the four WNT-regulating TCF/LEF transcription factors were expressed under standard serum conditions or in serum-free conditions, even with PKCi. […] These HFSC-associated TFs were also stimulated by BMP6, consistent with a raised threshold for activating WNT during quiescence (FIG. 10, Panels A and B). […] Rspo-mediated HFSC proliferation was sensitive to atRA with the greatest cooperative effect seen at 10-fold higher the atRA concentration that had been optimal for quiescence-related features of stemness (FIG. 2 Panel E, FIG. 10 Panel D).
# as §1
# CD34^+ HFSCs = assay: Topical treatment of mouse back skin during resting phase of the hair cycle; assay type: in vivo, mice; settings: telogen
# HFSCs [4] = assay: Transplantation of precultured HFSCs with dermal fibroblasts onto mouse back skins; assay type: in vivo; settings: HFSCs precultured in serum-free media primed with either atRA, BMP6 or Rspo
# Source text: By overcoming the hurdles to lineage progression in vitro, we challenged the in vivo regenerative potential of the described lineage-specified cell populations. YFP-labeled progenitors from each group were combined with allogenic dermal fibroblasts and transplanted onto mouse back skins.
# HFSCs [5] = assay: Wound repair with lineage-traced HFSCs, topical treatment; assay type: in vivo, mice
# Source text: The recruitment of HFSCs to epidermal repair is a multistep process, involving first the entry of HFSCs into a lineage plasticity state, second the fate switch to an epidermal fate and then later, the rebalancing of stem cell numbers across tissue compartments. Given the need for atRA to drive hair lineage determination, we analyzed whether elevating atRA after injury might diminish the ability of HFSCs to enter a state of lineage plasticity after wounding. To test this, we administered topical atRA immediately after wounding to telogen-phase, lineage marked HFSCs. While entry into the hair cycle proceeded normally after injury, topical atRA led to a stem cell imbalance (FIG. 5 Panel D).
# To assess the consequences of promoting lineage plasticity following injury, we placed mice on a vitamin A-deficient diet that depleted the skin of retinol without affecting body mass (FIG. 15 Panel E). In this case, following tissue injury, mobilized HFSCs entered a prolonged stated of dual lineage potential well into the later stages of repair (FIG. 5 Panel D). […] By day 30, vitamin A deficiency also elevated the fraction of stem cells that contributed to the repaired epidermis and diminished the number remaining in the bulge.
# human keratinocytes = assay: Human keratinocyte culture under the described conditions, 7 days; assay type: cell-based; settings: atRA plus PKCi added to B-27 media
# Source text: This example relates to FIG. 21. With respect to FIG. 21, to assess the translatability of the described methodology enabling the faithful recapitulation of hair follicle stem cell (HFSC) identity in culture to humans, we introduced the described conditions developed in the mouse to human keratinocytes.
# hair follicle = assay: Topical treatment of mouse back skin at mid-anagen (HF downgrowth)
# HFSCs [6] = assay: HFSC growth, survival and colony formation in 3D Matrigel culture; assay type: cell-based, mouse; settings: for concentration at which maximal rates of cell proliferation were reached: 3D Matrigel culture, standard HFSC media
# cultured HFSCs [7] = assay: Directed differentiation of cultured HFSCs to HS and IRS lineages (Cux1 reporters, GATA3, HOXC13); assay type: cell-based, mouse; settings: for hair shaft (HS) differentiation (HOXC13, HS reporter): WNT-BMP co-activated HFSCs
# [8] = daily topical during HF downgrowth
molecule,measurement,setting,value
"CC1=C(/C=C/C(C)=C/C=C/C(C)=C/C(=O)O)C(C)(C)CCC1 [atRA, all-trans-retinoic acid]",reduction of Klf5-EGFP levels,Klf5-EGFP,most effective at reducing Klf5-EGFP levels
same,effect on lineage plasticity (Klf5-EGFP levels),Klf5-EGFP,effective at reducing lineage plasticity without affecting proliferation; also recorded: particularly effective agents impacting lineage plasticity
same,Nfib and Tbx1 expression,cultured HFSCs [1],restored Nfib and Tbx1 expression
same,epidermal markers Sca1 and KRT10,cultured HFSCs [1],suppressed epidermal markers
same,Sox9 mRNA levels,cultured HFSCs [1]; atRA titrated 10 nM-1 μM,increased Sox9 mRNA levels in a dose-dependent manner
same,resolution of lineage plasticity and HFSC behavior,cultured HFSCs [1],optimally resolved lineage plasticity and favored HFSC behavior
same,KLF5 expression,cultured HFSCs [1]; serum-free conditions,not as effective in reducing KLF5
same,SOX9 population,cultured HFSCs [1]; serum-free conditions,markedly expanded the SOX9 population
same,"bulge HFSC identity (Nfatc1, Cxcl14-EGFP reporter)",cultured HFSCs [2],"dose-dependent boost in bulge HFSC identity, optimal at low concentration"
same,"bulge HFSC identity (Nfatc1, Cxcl14-EGFP reporter)",cultured HFSCs [2]; listed as RA,increased
same,atRA concentration at which BMP6-mediated Nfatc1 mRNA upregulation was maximal,cultured HFSCs [2]; with BMP6,10 nM
same,Tcf7l1 (TCF3) and Tcf7l2 (TCF4) expression,cultured HFSCs [3],promoted expression
same,Sox9 and Rspo-mediated Lgr5 upregulation,cultured HFSCs [3]; compared among physiological vitamin A derivatives,greatest effect on Sox9 and Rspo-mediated Lgr5 upregulation
same,atRA concentration at which Lgr5 mRNA upregulation and EdU incorporation were optimized,cultured HFSCs [3]; with Rspo,100 nM
same,atRA concentration for greatest cooperative effect on Rspo-mediated HFSC proliferation relative to concentration optimal for quiescence,cultured HFSCs [3]; with Rspo,10 fold
same,hair cycle (anagen) entry,CD34^+ HFSCs,facilitated hair cycle entry
same,hair cycle (anagen) entry,CD34^+ HFSCs; listed as RA,accelerated the onset of anagen entry
same,hair production upon engraftment,HFSCs [4],efficiently produced hair
same,HFSC lineage plasticity state during wound repair,HFSCs [5]; topical after wounding,Fewer HFSCs entered the lineage plasticity state
same,"restoration of skin barrier (transepidermal water loss, TEWL)",HFSCs [5]; topical after wounding,clear delay in restoring the skin's barrier
same,HFSC lineage plasticity state during wound repair,"HFSCs [5]; topical after wounding, listed as RA",accelerated lineage plasticity resolution
same,hair regeneration and HFSC fate in vitamin A-deficient mice,"HFSCs [5]; topical to wound bed, vitamin A-deficient diet",all of these features were rescued
same,KLF5 expression,human keratinocytes,further suppressed KLF5 expression in both basal and suprabasal layers
same,SOX9 levels,human keratinocytes,upregulated SOX9 levels
same,"keratin profile (KRT10, KRT6, KRT15)",human keratinocytes,reductions in KRT10 and KRT6; also recorded: upregulation of KRT15
same,TAC differentiation,hair follicle; [8],prevented TAC differentiation
same,hair regrowth,hair follicle; [8],prevented hair regrowth
same,proportion of HOXC13^+ to GATA3^+ cells,"hair follicle; topical, mid-anagen",reduced the relative proportion of HOXC13^+ to GATA3^+ cells
same,size of the hair bulb,"hair follicle; topical, mid-anagen",substantially reduced the size of the hair bulb overall
N[C@@H](CCC(=O)N[C@@H](CS)C(=O)NCC(=O)O)C(=O)O [glutathione],Klf5-EGFP levels,Klf5-EGFP,greatest impact when removed
CC(C)CCC[C@@H](C)[C@H]1CC[C@H]2[C@@H]3CC=C4C[C@@H](O)CC[C@]4(C)[C@H]3CC[C@]12C [Cholesterol],HFSC colony growth,HFSCs [6]; serum-free media,increase colony growth without compromising reductions in lineage plasticity
"C[C@]12CCC(=O)C=C1CC[C@@H]1[C@@H]2[C@@H](O)C[C@@]2(C)[C@H]1CC[C@]2(O)C(=O)CO [Hydrocortisone, hydrocortisone]","effect on cell survival, colony formation or proliferation",HFSCs [6]; media component testing,not necessary for colony formation or cell proliferation
"EGF: epidermal growth factor, mitogen",concentration at which maximal rates of cell proliferation were reached,HFSCs [6],25 ng/mL
C[C@@H](N)[C@H]1CC[C@H](C(=O)Nc2ccncc2)CC1 [Y-27632],"effect on cell survival, colony formation or proliferation",HFSCs [6]; media component testing,increase cell survival and CFE
Cc1ccc(C2=CCC(C)(C)c3ccc(C#Cc4ccc(C(=O)O)cc4)cc32)cc1 [AGN193109],"hair shaft (HS) differentiation (HOXC13, HS reporter)",cultured HFSCs [7],uniquely promoted
same,"hair shaft (HS) differentiation (HOXC13, HS reporter)",cultured HFSCs [7]; listed as RARi,primarily increased HOXC13 expression and enhancer epicenter reporter activity for the HS lineage
same,HF downgrowth and epidermal flux following wounding,HFSCs [5]; topical,reducing HF downgrowth and promoting epidermal upward flux
"Cn1c2ccccc2c2c3c(c4c5ccccc5n(CCC#N)c4c21)CNC3=O [PKCi, Go-6976]",reduction of Klf5-EGFP levels,Klf5-EGFP,most effective at reducing Klf5-EGFP levels
same,effect on lineage plasticity (Klf5-EGFP levels),Klf5-EGFP,effective at reducing lineage plasticity without affecting proliferation; also recorded: particularly effective agents impacting lineage plasticity
same,minimum concentration required to achieve maximal effect on lineage plasticity and HFSC fate,Klf5-EGFP; titrated 0.1-10 μM,1 µM
same,KRT6 and Ets2 expression,cultured HFSCs [1],suppressed
same,resolution of lineage plasticity and HFSC behavior,cultured HFSCs [1],optimally resolved lineage plasticity and favored HFSC behavior
same,KLF5 expression,cultured HFSCs [1]; serum-free conditions,suppressed KLF5 expression
same,Cxcl14 activity,cultured HFSCs [2],little or no effect on Cxcl14 activity
same,KLF5 expression,human keratinocytes,further suppressed KLF5 expression in both basal and suprabasal layers
same,SOX9 levels,human keratinocytes,upregulated SOX9 levels
same,"keratin profile (KRT10, KRT6, KRT15)",human keratinocytes; listed as G66976,reductions in KRT10 and KRT6; also recorded: upregulation of KRT15
"[Ca+2].[Cl-].[Cl-] [CaCl2, Calcium Chloride]","effect on cell survival, colony formation or proliferation",HFSCs [6],Less CaCl2 reduced cell proliferation while higher amounts promoted epidermal differentiation
B1,lineages formed,"cultured HFSCs [7]; R-spondins, BMP2 and BMP4 together",directed HFSCs to form the hair shaft and inner root sheath lineages
same,Cux1 (IRS) and Cux1 (HS) reporter activity,cultured HFSCs [7]; alongside Rspo,most effective in upregulating reporter activity
B2,cell state,cultured HFSCs [2]; BMP6 with low concentration of atRA (10 nM),resulted in cell cycle exit and maintained a state resembling quiescence
same,"cell cycle exit / quiescence (Nfatc1 expression, Cxcl14 promoter reporter)",cultured HFSCs [2]; compared among BMPs,most potent effect
same,Tcf7l1 (TCF3) and Tcf7l2 (TCF4) expression,cultured HFSCs [3],stimulated
same,hair production upon engraftment,HFSCs [4],efficiently produced hair
B3,Klf5-EGFP levels,Klf5-EGFP,consistently lower
same,concentration at which maximal rates of cell proliferation were reached,HFSCs [6],10 ng/mL
